Measurements taken from ChEMBL document CHEMBL1909046, “DrugMatrix in vitro pharmacology data”.

Columns and labels:
Caspase-1 = target: T1, Caspase-1 (Homo sapiens, UniProt P29466); parameters: species or system Escherichia coli;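 also: Caspase-1 enzyme inhibition assay with a peptide substrate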
T1 sequence (P29466 whole entry): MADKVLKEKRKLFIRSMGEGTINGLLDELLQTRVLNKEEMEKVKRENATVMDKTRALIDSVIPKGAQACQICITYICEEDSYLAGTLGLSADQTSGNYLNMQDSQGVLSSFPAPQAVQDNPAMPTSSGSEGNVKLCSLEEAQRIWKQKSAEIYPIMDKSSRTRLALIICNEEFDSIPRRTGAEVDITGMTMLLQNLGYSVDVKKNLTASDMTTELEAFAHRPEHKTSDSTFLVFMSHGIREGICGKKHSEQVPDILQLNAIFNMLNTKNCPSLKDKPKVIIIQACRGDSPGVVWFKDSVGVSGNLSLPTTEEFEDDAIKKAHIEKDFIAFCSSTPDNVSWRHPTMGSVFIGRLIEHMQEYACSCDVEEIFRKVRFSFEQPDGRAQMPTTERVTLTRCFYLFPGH

[1] = target: Protein phosphatase 3 catalytic subunit alpha (Homo sapiens, UniProt Q08209); parameters: species or system Escherichia coli;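 also: inhibition of calcineurin (PP2B) enzyme activity, measured with DiFMUP as the substrate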
[2] = target: Platelet-activating factor receptor (Homo sapiens, UniProt P25105); test: biochemical; format: tissue-based; details: platelet
Androgen receptor = target: T2, Androgen receptor (Rattus norvegicus, UniProt P15207)
T2 sequence (P15207 whole entry): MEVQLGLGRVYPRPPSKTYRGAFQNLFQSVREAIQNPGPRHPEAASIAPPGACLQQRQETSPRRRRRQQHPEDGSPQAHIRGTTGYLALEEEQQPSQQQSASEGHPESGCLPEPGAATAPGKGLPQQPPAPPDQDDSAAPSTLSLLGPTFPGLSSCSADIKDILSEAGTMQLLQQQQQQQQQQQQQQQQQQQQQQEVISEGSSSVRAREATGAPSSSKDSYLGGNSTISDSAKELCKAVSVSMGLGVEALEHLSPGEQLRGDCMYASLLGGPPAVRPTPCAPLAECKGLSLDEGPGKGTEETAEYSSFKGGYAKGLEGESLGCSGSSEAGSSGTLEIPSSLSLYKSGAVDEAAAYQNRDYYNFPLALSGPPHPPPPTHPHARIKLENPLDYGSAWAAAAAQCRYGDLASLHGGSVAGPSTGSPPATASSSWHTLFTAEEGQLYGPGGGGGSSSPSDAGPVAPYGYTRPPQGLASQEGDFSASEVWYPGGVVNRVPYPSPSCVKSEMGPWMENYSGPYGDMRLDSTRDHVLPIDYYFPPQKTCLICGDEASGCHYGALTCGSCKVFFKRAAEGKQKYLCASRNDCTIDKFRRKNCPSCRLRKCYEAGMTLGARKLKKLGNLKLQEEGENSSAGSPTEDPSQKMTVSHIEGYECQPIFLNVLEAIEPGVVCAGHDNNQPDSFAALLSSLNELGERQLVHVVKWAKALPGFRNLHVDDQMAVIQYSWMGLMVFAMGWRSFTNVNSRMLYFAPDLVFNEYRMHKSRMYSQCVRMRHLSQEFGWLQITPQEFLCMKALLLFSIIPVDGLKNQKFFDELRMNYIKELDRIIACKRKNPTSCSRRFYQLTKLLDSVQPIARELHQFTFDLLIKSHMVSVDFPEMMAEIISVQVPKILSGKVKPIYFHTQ

[3] = target: Voltage-gated inwardly rectifying potassium channel KCNH2 (Homo sapiens, UniProt Q12809)
Cytochrome P450 2C19 = Cytochrome P450 2C19 (Homo sapiens, UniProt P33261)
Glucocorticoid receptor = target: T3, Glucocorticoid receptor (Homo sapiens, UniProt P04150); test: biochemical
T3 sequence (P04150 whole entry): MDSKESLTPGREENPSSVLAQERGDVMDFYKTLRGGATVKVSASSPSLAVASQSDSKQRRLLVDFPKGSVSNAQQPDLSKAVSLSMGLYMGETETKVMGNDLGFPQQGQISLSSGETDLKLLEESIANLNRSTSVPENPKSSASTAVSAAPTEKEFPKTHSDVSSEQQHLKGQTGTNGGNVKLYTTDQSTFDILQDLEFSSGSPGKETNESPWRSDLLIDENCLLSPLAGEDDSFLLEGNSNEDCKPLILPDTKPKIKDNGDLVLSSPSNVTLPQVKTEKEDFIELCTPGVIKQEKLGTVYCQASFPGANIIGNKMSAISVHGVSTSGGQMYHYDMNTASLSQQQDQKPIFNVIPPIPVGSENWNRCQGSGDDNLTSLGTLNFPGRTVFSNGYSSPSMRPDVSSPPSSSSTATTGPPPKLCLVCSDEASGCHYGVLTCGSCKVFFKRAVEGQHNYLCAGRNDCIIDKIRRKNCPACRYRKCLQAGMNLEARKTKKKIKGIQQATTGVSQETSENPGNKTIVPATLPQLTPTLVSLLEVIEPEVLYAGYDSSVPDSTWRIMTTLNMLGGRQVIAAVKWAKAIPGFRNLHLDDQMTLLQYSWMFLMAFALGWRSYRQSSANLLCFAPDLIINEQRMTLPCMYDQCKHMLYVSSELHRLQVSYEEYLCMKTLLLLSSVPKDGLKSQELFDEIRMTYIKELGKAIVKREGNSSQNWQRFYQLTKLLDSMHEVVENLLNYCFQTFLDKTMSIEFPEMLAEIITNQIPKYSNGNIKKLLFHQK

Cytochrome P450 2C9 = Cytochrome P450 2C9 (Homo sapiens, UniProt P11712)
Also: in other assays of this panel Not Active means under 50% inhibition at 10 µM.

Sequence of Platelet-activating factor receptor (P25105 whole entry): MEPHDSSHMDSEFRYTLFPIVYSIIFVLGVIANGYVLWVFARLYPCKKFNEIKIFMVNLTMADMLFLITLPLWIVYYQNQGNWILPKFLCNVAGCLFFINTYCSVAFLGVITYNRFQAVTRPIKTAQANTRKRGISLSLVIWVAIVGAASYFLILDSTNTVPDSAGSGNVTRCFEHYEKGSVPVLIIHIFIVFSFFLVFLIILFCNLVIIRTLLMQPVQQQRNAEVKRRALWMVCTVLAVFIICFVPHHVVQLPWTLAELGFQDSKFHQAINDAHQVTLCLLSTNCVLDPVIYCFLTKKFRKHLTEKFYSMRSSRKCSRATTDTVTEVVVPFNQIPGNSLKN
Sequence of Voltage-gated inwardly rectifying potassium channel KCNH2 (Q12809 whole entry): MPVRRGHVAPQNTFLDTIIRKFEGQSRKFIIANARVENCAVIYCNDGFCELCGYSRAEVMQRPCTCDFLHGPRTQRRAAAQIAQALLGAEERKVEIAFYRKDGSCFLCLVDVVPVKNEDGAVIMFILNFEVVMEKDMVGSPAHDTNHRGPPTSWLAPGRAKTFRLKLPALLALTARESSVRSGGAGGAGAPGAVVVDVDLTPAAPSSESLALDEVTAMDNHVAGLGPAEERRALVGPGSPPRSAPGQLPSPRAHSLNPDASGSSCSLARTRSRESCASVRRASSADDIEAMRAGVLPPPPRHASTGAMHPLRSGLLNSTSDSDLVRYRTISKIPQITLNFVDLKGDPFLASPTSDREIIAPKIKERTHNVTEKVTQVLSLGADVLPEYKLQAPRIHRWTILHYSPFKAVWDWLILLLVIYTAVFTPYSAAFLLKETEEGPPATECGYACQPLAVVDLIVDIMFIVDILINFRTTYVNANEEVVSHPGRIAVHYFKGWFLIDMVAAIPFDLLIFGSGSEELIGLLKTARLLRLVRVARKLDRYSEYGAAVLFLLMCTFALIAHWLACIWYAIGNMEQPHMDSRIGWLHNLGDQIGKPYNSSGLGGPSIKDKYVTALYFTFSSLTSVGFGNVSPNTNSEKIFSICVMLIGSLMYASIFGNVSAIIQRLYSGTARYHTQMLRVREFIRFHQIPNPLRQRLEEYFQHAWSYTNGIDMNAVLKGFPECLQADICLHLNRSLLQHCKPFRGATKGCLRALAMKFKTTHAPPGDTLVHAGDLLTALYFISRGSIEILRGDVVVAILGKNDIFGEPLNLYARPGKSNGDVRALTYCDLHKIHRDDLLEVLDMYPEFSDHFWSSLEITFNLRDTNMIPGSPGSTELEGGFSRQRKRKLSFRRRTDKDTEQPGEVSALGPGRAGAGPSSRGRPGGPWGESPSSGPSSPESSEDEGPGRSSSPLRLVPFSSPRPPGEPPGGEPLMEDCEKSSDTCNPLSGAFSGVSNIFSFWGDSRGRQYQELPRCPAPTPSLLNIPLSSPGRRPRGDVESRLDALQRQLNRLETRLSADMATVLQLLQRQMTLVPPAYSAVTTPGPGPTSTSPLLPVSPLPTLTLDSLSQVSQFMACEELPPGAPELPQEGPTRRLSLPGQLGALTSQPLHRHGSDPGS
Sequence of Cytochrome P450 2C19 (P33261 whole entry): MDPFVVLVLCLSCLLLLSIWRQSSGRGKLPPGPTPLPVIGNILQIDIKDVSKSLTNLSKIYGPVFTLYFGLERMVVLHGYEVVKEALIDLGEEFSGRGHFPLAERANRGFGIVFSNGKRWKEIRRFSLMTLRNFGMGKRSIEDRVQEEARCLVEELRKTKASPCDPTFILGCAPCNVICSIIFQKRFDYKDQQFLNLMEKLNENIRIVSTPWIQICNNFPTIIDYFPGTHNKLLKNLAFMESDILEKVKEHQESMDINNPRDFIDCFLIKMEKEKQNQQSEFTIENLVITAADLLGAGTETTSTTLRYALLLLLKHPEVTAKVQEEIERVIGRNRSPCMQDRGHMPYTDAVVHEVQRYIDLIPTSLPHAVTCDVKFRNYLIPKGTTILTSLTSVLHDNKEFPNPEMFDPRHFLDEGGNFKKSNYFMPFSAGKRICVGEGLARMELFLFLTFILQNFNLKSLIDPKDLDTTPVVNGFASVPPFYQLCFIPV
Sequence of Cytochrome P450 2C9 (P11712 whole entry): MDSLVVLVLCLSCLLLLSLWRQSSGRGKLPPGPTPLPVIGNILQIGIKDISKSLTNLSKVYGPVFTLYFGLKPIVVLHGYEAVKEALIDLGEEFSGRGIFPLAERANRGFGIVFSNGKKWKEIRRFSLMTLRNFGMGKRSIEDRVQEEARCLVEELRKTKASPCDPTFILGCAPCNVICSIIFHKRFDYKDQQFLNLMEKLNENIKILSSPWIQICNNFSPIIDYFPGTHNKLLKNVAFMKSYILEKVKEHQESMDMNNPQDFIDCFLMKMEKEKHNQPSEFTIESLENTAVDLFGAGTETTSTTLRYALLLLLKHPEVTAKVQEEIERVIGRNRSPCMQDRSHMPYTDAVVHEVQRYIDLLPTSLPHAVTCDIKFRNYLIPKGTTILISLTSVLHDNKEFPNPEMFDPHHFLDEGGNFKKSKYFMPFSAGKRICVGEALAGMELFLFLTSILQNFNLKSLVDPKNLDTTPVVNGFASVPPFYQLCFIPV

CNS(=O)(=O)Cc1ccc2[nH]cc(CCN(C)C)c2c1
Not Active: IC50 (Caspase-1) | IC50 [1] | IC50 [2]

CCCc1nn(C)c2c(=O)[nH]c(-c3cc(S(=O)(=O)N4CCN(C)CC4)ccc3OCC)nc12
Not Active: IC50 (Caspase-1) | IC50 [1] | IC50 [2]

COc1ccc(/C=C/C(=O)Nc2ccccc2C(=O)O)cc1OC
Not Active: IC50 (Caspase-1) | IC50 (Androgen receptor) | IC50 [1] | IC50 [2]

CCOC(N)=O
Not Active: IC50 (Caspase-1) | IC50 [1] | IC50 [2]

CC(=O)Nc1nnc(S(N)(=O)=O)s1 [ACETAZOLAMIDE]
Not Active: IC50 (Caspase-1) | IC50 [1] | IC50 [2]

O=c1[nH]c2ccccc2n1CCCN1CCC(n2c(=O)[nH]c3cc(Cl)ccc32)CC1 [DOMPERIDONE]
Not Active: IC50 (Caspase-1) | IC50 [1] | IC50 [2]

CC1=C(CC(=O)O)c2cc(F)ccc2/C1=C\c1ccc(S(C)(=O)=O)cc1 [EXISULIND]
Not Active: IC50 (Caspase-1) | IC50 (Androgen receptor) | IC50 [1] | IC50 [2]

CC(C)OC(=O)C(C)(C)Oc1ccc(C(=O)c2ccc(Cl)cc2)cc1 [FENOFIBRATE]
Not Active: IC50 (Caspase-1) | IC50 (Androgen receptor) | IC50 [1] | IC50 [2]

OCCN1CCN(CCCN2c3ccccc3Sc3ccc(C(F)(F)F)cc32)CC1 [FLUPHENAZINE]
5.71 µM: IC50 [3]
Not Active: IC50 (Caspase-1) | IC50 [1] | IC50 [2]
4.67 µM: Ki [3]

CN1C2CCCC1CC(NC(=O)c1nn(C)c3ccccc13)C2 (stereo not drawn) [GRANISETRON]
Not Active: IC50 (Caspase-1) | IC50 [1] | IC50 [2]

Nc1nc2c(c(=O)[nH]1)N(C=O)C(CNc1ccc(C(=O)N[C@@H](CCC(=O)O)C(=O)O)cc1)CN2 (stereo partly drawn) [LEUCOVORIN]
Not Active: IC50 (Caspase-1) | IC50 (Androgen receptor) | IC50 [1] | IC50 [2]

C[C@@H](O)[C@H]1C(=O)N2C(C(=O)O)=C(S[C@@H]3CN[C@H](C(=O)N(C)C)C3)[C@H](C)[C@H]12 [MEROPENEM]
Not Active: IC50 (Caspase-1) | IC50 [1] | IC50 [2]

CC[C@@H](CO)NC(=O)[C@@H]1C=C2c3cccc4c3c(cn4C)C[C@H]2N(C)C1 [METHYSERGIDE]
Not Active: IC50 (Caspase-1) | IC50 [1] | IC50 [2]

CCN(CC)CC#CCOC(=O)C(O)(c1ccccc1)C1CCCCC1 (stereo not drawn) [OXYBUTYNIN]
Not Active: IC50 (Caspase-1) | IC50 [1] | IC50 [2]

O=P(O)(O)C(O)(Cc1cccnc1)P(=O)(O)O [RISEDRONIC ACID]
Not Active: IC50 (Caspase-1) | IC50 [1] | IC50 [2]

CN(CCOc1ccc(CC2SC(=O)NC2=O)cc1)c1ccccn1 (stereo not drawn) [ROSIGLITAZONE]
Not Active: IC50 (Caspase-1) | IC50 [1] | IC50 [2]

C=C(C)[C@H]1Cc2c(ccc3c2O[C@@H]2COc4cc(OC)c(OC)cc4[C@@H]2C3=O)O1 [ROTENONE]
3.65 µM: IC50 (Cytochrome P450 2C19)
Not Active: IC50 (Caspase-1) | IC50 (Androgen receptor) | IC50 [1] | IC50 [2]

C#CCN(C)[C@H](C)Cc1ccccc1 [SELEGILINE]
Not Active: IC50 (Caspase-1) | IC50 [1] | IC50 [2]

CN[C@@H]1[C@H](O)[C@H](NC)[C@H]2O[C@@]3(O)C(=O)C[C@@H](C)O[C@H]3O[C@@H]2[C@H]1O [SPECTINOMYCIN]
Not Active: IC50 (Caspase-1) | IC50 (Androgen receptor) | IC50 [1] | IC50 [2]

Nc1ccc(S(=O)(=O)Nc2ncccn2)cc1 [SULFADIAZINE]
Not Active: IC50 (Caspase-1) | IC50 [1] | IC50 [2]

COc1ncnc(NS(=O)(=O)c2ccc(N)cc2)c1OC [SULFADOXINE]
Not Active: IC50 (Caspase-1) | IC50 [1] | IC50 [2]

Nc1ccc(S(=O)(=O)Nc2nccs2)cc1 [SULFATHIAZOLE]
Not Active: IC50 (Caspase-1) | IC50 [1] | IC50 [2]

C[C@]12CC[C@H]3[C@@H](CCC4=CC(=O)CC[C@@]43C)[C@@H]1CC[C@@H]2O [TESTOSTERONE]
Not Active: IC50 (Caspase-1) | IC50 [1] | IC50 [2]
1.46 µM: Ki (Glucocorticoid receptor)
3.21 µM: IC50 (Glucocorticoid receptor)

CC(C)(C)NC[C@H](O)COc1nsnc1N1CCOCC1 [TIMOLOL]
Not Active: IC50 (Caspase-1) | IC50 [1] | IC50 [2]

CCS(=O)(=O)CCn1c([N+](=O)[O-])cnc1C [TINIDAZOLE]
Not Active: IC50 (Caspase-1) | IC50 [1] | IC50 [2]

C[C@@H]1C[C@H]2[C@@H]3CCC4=CC(=O)C=C[C@]4(C)C3=CC[C@]2(C)[C@H]1C(=O)CN1CCN(c2cc(N3CCCC3)nc(N3CCCC3)n2)CC1 [TIRILAZAD]
Not Active: IC50 (Caspase-1) | IC50 (Androgen receptor) | IC50 [1] | IC50 [2]

NC[C@H]1O[C@H](O[C@H]2[C@H](O)[C@@H](O[C@H]3O[C@H](CO)[C@@H](O)[C@H](N)[C@H]3O)[C@H](N)C[C@@H]2N)[C@H](N)C[C@@H]1O [TOBRAMYCIN]
Not Active: IC50 (Caspase-1) | IC50 [1] | IC50 [2]

O=c1n(CCCN2CCN(c3cccc(Cl)c3)CC2)nc2ccccn12 [TRAZODONE]
Not Active: IC50 (Caspase-1) | IC50 [1] | IC50 [2]

O=C(O)C(Cl)(Cl)Cl [TRICHLOROACETIC ACID]
Not Active: IC50 (Caspase-1) | IC50 [1] | IC50 [2]

COc1ccc(CN2CCNCC2)c(OC)c1OC [TRIMETAZIDINE]
Not Active: IC50 (Caspase-1) | IC50 [1] | IC50 [2]

CC(=O)O[C@H]1C[C@@H]2CC[C@@H]3[C@H](CC[C@@]4(C)[C@H]3C[C@H]([N+]3(C)CCCCC3)[C@@H]4OC(C)=O)[C@@]2(C)C[C@@H]1N1CCCCC1.[Br-] [VECURONIUM BROMIDE]
Not Active: IC50 (Caspase-1) | IC50 [1] | IC50 [2]

COc1cc(C(=O)NS(=O)(=O)c2ccccc2C)ccc1Cc1cn(C)c2ccc(NC(=O)OC3CCCC3)cc12 [ZAFIRLUKAST]
2.26 µM: IC50 (Cytochrome P450 2C9)
Not Active: IC50 (Caspase-1) | IC50 [1] | IC50 [2]

Cc1cn([C@H]2C[C@H](N=[N+]=[N-])[C@@H](CO)O2)c(=O)[nH]c1=O [ZIDOVUDINE]
Not Active: IC50 (Caspase-1) | IC50 [1] | IC50 [2]

STANNOUS FLUORIDE
Not Active: IC50 (Caspase-1) | Ki (Caspase-1) | IC50 (Androgen receptor) | Ki (Androgen receptor) | IC50 [1] | Ki [1] | IC50 [2] | Ki [2]

THIMEROSAL
Not Active: IC50 (Caspase-1) | Ki (Caspase-1) | IC50 (Androgen receptor) | Ki (Androgen receptor) | IC50 [1] | Ki [1] | IC50 [2] | Ki [2]
